According to patent US20100152434A1, “Protein Kinase-binding Nucleosides and Associated Methods” (priority 2007, published 2010):
Read-outs that look alike come from different tables or passages of the source.

What was measured:
HOP-62 = settings: HOP-62
HCT-15 [1] = system: HCT-15
SF-268 [2] = system: SF-268
SK-MEL-2 [3] = system: SK-MEL-2
UACC-257 [4] = system: UACC-257
788-0 = settings: 788-0
UO-31 [5] = system: UO-31
CCRF-CEM = assay: cells; settings: Homo sapiens, 48 h
COLO 205 = assay: cells; settings: Homo sapiens, COLO 205, 48 h
HCT-15 [6] = assay: cells; settings: Homo sapiens, HCT-15, 48 h
SF-268 [7] = assay: cells; settings: Homo sapiens, SF-268, 48 h
U251 = assay: cells; settings: Homo sapiens, U-251, 48 h
MALME-3M = assay: cells; settings: Homo sapiens, 48 h
SK-MEL-2 [8] = assay: cells; settings: Homo sapiens, SK-MEL-2, 48 h
UACC-257 [9] = assay: cells; settings: Homo sapiens, UACC-257, 48 h
UACC-62 = assay: cells; settings: Homo sapiens, UACC-62, 48 h
OVCAR-8 = assay: cells; settings: Homo sapiens, OVCAR-8, 48 h
A498 = assay: cells; settings: Homo sapiens, A498, 48 h
SN12C = assay: cells; settings: Homo sapiens, 48 h
TK-10 = assay: cells; settings: Homo sapiens, TK-10, 48 h
UO-31 [10] = assay: cells; settings: Homo sapiens, UO-31, 48 h
NCI/ADR-RES = assay: cells; settings: Homo sapiens, 48 h
T-47D = assay: cells; settings: Homo sapiens, T47D, 48 h
[11] = Log10 Concentration −4.0, Molar
[12] = Log10 Concentration −5.0, Molar
[13] = Log10 Concentration −6.0, Molar
[14] = Log10 Concentration −7.0, Molar
[15] = Log10 Concentration −8.0, Molar

For CCOC(=O)C[C@@H]1C(O[Si](C)(C)C(C)(C)C)[C@H](n2cnc3c(NC(=O)Nc4ccccc4)ncnc32)O[C@@H]1CNC(=O)NC (stereo partly shown) [Compound 10], the TGI (A549/ATCC; 48 h) was 1.92E−5 Molar, the “Percent Growth” value (A549/ATCC; [11]) was −58% and the “Percent Growth” value (A549/ATCC; [12]) was 23%. The “Percent Growth” value (A549/ATCC; [13]) was 94%, the “Percent Growth” value (A549/ATCC; [14]) was 103% and the “Percent Growth” value (A549/ATCC; [15]) was 102%. The TGI (HOP-62; 48 h) was 2.64E−5 Molar, the “Percent Growth” value (HOP-62; [11]) was −65% and the “Percent Growth” value (HOP-62; [12]) was 48%. For the same compound, the “Percent Growth” value (HOP-62; [13]) was 97%, the “Percent Growth” value (HOP-62; [14]) was 92% and the “Percent Growth” value (HOP-62; [15]) was 99%. The “Percent Growth” value (HOP-92; [11]) was −61%, the “Percent Growth” value (HOP-92; [12]) was −32% and the “Percent Growth” value (HOP-92; [13]) was 12%. The “Percent Growth” value (HOP-92; [14]) was −1%, the “Percent Growth” value (HOP-92; [15]) was 4% and the TGI (NCI-H522; 48 h) was 8.57E−5 Molar. The “Percent Growth” value (NCI-H522; [11]) was −2%, the “Percent Growth” value (NCI-H522; [12]) was 32% and the “Percent Growth” value (NCI-H522; [13]) was 83%. For the same compound, the “Percent Growth” value (NCI-H522; [14]) was 85%, the “Percent Growth” value (NCI-H522; [15]) was 89% and the TGI (HCT-15 [1]; 48 h) was >1.00E−4 Molar. For the same compound, the “Percent Growth” value (HCT-15 [1]; [11]) was 43%, the “Percent Growth” value (HCT-15 [1]; [12]) was 47% and the “Percent Growth” value (HCT-15 [1]; [13]) was 94%. For the same compound, the “Percent Growth” value (HCT-15 [1]; [14]) was 96%, the “Percent Growth” value (HCT-15 [1]; [15]) was 99% and the TGI (SF-268 [2]; 48 h) was 2.70E−5 Molar. For the same compound, the “Percent Growth” value (SF-268 [2]; [11]) was −53%, the “Percent Growth” value (SF-268 [2]; [12]) was 40% and the “Percent Growth” value (SF-268 [2]; [13]) was 93%. The “Percent Growth” value (SF-268 [2]; [14]) was 103%, the “Percent Growth” value (SF-268 [2]; [15]) was 102% and the TGI (SF-295; 48 h) was >1.00E−4 Molar. For the same compound, the “Percent Growth” value (SF-295; [11]) was 24%, the “Percent Growth” value (SF-295; [12]) was 38% and the “Percent Growth” value (SF-295; [13]) was 88%. For the same compound, the “Percent Growth” value (SF-295; [14]) was 91%, the “Percent Growth” value (SF-295; [15]) was 91% and the TGI (SK-MEL-2 [3]; 48 h) was 3.31E−5 Molar. The “Percent Growth” value (SK-MEL-2 [3]; [11]) was −30%, the “Percent Growth” value (SK-MEL-2 [3]; [12]) was 32% and the “Percent Growth” value (SK-MEL-2 [3]; [13]) was 99%. For the same compound, the “Percent Growth” value (SK-MEL-2 [3]; [14]) was 94%, the “Percent Growth” value (SK-MEL-2 [3]; [15]) was 102% and the TGI (UACC-257 [4]; 48 h) was >1.00E−4 Molar. For the same compound, the “Percent Growth” value (UACC-257 [4]; [11]) was 9%, the “Percent Growth” value (UACC-257 [4]; [12]) was 34% and the “Percent Growth” value (UACC-257 [4]; [13]) was 99%. For the same compound, the “Percent Growth” value (UACC-257 [4]; [14]) was 102%, the “Percent Growth” value (UACC-257 [4]; [15]) was 102% and the TGI (788-0; 48 h) was 5.21E−8 Molar. For the same compound, the “Percent Growth” value (788-0; [11]) was −97%, the “Percent Growth” value (788-0; [12]) was −34% and the “Percent Growth” value (788-0; [13]) was 86%. For the same compound, the “Percent Growth” value (788-0; [14]) was 83%, the “Percent Growth” value (788-0; [15]) was 92% and the TGI (CAKI-1; 48 h) was >1.00E−4 Molar. The “Percent Growth” value (CAKI-1; [11]) was 7%, the “Percent Growth” value (CAKI-1; [12]) was 88% and the “Percent Growth” value (CAKI-1; [13]) was 99%. The “Percent Growth” value (CAKI-1; [14]) was 95%, the “Percent Growth” value (CAKI-1; [15]) was 88% and the TGI (UO-31 [5]; 48 h) was 2.95E−5 Molar. For the same compound, the “Percent Growth” value (UO-31 [5]; [11]) was −69%, the “Percent Growth” value (UO-31 [5]; [12]) was 61% and the “Percent Growth” value (UO-31 [5]; [13]) was 82%. The “Percent Growth” value (UO-31 [5]; [14]) was 87%, the “Percent Growth” value (UO-31 [5]; [15]) was 87% and the GI50 (CCRF-CEM) was 6.69 µM. The CC50 (CCRF-CEM; read-out: LC50) was > 100 µM, the GI50 (COLO 205) was 3.84 µM and the CC50 (COLO 205; read-out: LC50) was > 100 µM. For the same compound, the GI50 (HCT-15 [6]) was 8.5 µM, the CC50 (HCT-15 [6]; read-out: LC50) was > 100 µM and the GI50 (SF-268 [7]) was 6.53 µM. The CC50 (SF-268 [7]; read-out: LC50) was 92.5 µM, the GI50 (U251) was 4.69 µM and the CC50 (U251; read-out: LC50) was 76 µM. The GI50 (MALME-3M) was 10.3 µM, the CC50 (MALME-3M; read-out: LC50) was > 100 µM and the GI50 (SK-MEL-2 [8]) was 5.42 µM. The CC50 (SK-MEL-2 [8]; read-out: LC50) was > 100 µM, the GI50 (UACC-257 [9]) was 5.68 µM and the CC50 (UACC-257 [9]; read-out: LC50) was > 100 µM. For the same compound, the GI50 (UACC-62) was > 100 µM, the CC50 (UACC-62; read-out: LC50) was > 100 µM and the GI50 (OVCAR-8) was 4.92 µM. The CC50 (OVCAR-8; read-out: LC50) was > 100 µM, the GI50 (A498) was 3.34 µM and the CC50 (A498; read-out: LC50) was > 100 µM. The GI50 (SN12C) was 9.1 µM, the CC50 (SN12C; read-out: LC50) was > 100 µM and the GI50 (TK-10) was 12.4 µM. The CC50 (TK-10; read-out: LC50) was > 100 µM, the GI50 (UO-31 [10]) was 12.1 µM and the CC50 (UO-31 [10]; read-out: LC50) was 71.7 µM. The GI50 (NCI/ADR-RES) was > 100 µM, the CC50 (NCI/ADR-RES; read-out: LC50) was > 100 µM and the GI50 (T-47D) was 2.55 µM. For the same compound, the CC50 (T-47D; read-out: LC50) was > 100 µM.
